From patent publication US6413960B1, “Substituted pyrazolyl benzenesulfonamides for the treatment of asthma” (G.D. Searle & Co., priority 1993, dated 2002)
Like-named read-outs stand apart in the source and are kept apart here.

Experiments:
[1] = tested on: Male Sprague-Dawley rats (carrageenan foot edema); settings: for RAT PAW EDEMA % Inhibition (* Assay performed at 30 mg/kg body weight): 30 mg/kg body weight (values marked *)
Experimental: Rat Carrageenan Foot Pad Edema Test
Male Sprague-Dawley rats were selected in each group so that the average body weight was as close as possible. Rats were fasted with free access to water for over sixteen hours prior to the test. […] One hour later a subplantar injection of 0.1 mL of 1% solution of carrageenan/sterile 0.9% saline was administered and the volume of the injected foot was measured with a displacement plethysmometer connected to a pressure transducer with a digital indicator. Three hours after the injection of the carrageenan, the volume of the foot was again measured.

[2] = tested on: Male Sprague-Dawley rats (carrageenan hyperalgesic foot withdrawal); settings: rat, in vivo
Experimental: Rat Carrageenan-induced Analgesia Test
Male Sprague-Dawley rats were treated as previously described for the carrageenan Foot Pad Edema test. Three hours after the injection of the carrageenan, the rats were placed in a special plexiglass container with a transparent floor having a high intensity lamp as a radiant heat source, positionable under the floor. After an initial twenty minute period, thermal stimulation was begun on either the injected foot or on the contralateral uninjected foot. A photoelectric cell turned off the lamp and timer when light was interrupted by paw withdrawal. The time until the rat withdraws its foot was then measured. The withdrawal latency in seconds was determined for the control and drug-treated groups, and percent inhibition of the hyperalgesic foot withdrawal determined.

[3] = biological target: T1, Human COX II (Homo sapiens, UniProt P35354); assay: Assay for COX II activity in vitro (PGE2 ELISA, recombinant enzyme); assay type: biochemical; settings: read-out: Human COX II ID50
T1 construct: A 2.0 kb fragment containing the coding region of either human or murine COX-I or human or murine COX-II; made in house; host or cells: SF9 insect cells (baculovirus, transfer vector pVL1393)
T1 sequence (P35354 18-604): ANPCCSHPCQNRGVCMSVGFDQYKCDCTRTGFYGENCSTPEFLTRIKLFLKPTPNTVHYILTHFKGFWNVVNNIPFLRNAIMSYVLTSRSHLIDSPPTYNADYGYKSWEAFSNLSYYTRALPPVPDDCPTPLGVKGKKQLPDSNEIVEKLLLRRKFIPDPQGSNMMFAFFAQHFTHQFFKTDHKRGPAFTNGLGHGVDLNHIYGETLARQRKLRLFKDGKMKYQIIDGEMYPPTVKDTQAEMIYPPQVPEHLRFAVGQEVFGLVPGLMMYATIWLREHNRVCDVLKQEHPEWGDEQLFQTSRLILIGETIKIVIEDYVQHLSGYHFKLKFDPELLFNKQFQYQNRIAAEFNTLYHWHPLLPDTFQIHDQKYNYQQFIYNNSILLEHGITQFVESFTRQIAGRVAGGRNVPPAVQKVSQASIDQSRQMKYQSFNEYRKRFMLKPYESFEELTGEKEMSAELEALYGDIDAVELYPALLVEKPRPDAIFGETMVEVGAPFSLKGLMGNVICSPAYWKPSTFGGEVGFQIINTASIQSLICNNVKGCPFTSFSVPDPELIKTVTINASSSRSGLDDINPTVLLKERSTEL
Experimental: The COX II inhibition activity of the compounds of this invention illustrated in the Examples was determined by the following methods.

[4] = biological target: T2, Human COX I (Homo sapiens, UniProt P23219); assay: Assay for COX I activity in vitro (PGE2 ELISA, recombinant enzyme); assay type: biochemical
T2 construct: A 2.0 kb fragment containing the coding region of either human or murine COX-I or human or murine COX-II; made in house; host or cells: SF9 insect cells (baculovirus, transfer vector pVL1393)
T2 sequence (P23219 24-599): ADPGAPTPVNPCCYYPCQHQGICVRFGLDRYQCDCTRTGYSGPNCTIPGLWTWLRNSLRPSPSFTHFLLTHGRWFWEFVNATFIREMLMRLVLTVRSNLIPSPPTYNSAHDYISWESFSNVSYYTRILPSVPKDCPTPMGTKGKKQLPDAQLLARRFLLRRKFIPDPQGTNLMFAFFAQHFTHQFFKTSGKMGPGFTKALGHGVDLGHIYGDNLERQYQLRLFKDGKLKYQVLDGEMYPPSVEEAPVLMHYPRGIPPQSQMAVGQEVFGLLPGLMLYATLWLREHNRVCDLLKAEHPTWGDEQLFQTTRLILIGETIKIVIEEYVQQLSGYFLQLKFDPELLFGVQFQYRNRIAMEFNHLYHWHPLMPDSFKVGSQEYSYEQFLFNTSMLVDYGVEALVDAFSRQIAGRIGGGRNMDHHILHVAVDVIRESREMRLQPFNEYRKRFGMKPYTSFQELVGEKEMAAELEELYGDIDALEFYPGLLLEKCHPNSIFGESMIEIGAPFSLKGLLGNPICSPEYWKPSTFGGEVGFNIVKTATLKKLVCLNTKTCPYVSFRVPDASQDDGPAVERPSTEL

[5] = oral, foot volume 3 h after carrageenan
[6] = oral, 10 mg/kg body weight, foot volume 3 h after carrageenan

Row | Compound | IC50 [3] [µM] | melting point | other results
1 | NS(=O)(=O)c1ccc(-n2nc(C(F)(F)F)cc2-c2ccc(Cl)cc2)cc1 [Example 1, 4-[5-(4-Chlorophenyl)-3-(trifluoromethyl)-1H-pyrazol-1-yl]benzenesulfonamide] |  |  | RAT PAW EDEMA % Inhibition @ 10 mg/kg body weight ([1]; in vivo): 44%; ANALGESIA % Inhibition @ 30 mg/kg body weight [2]: 94%
2 | COc1c(Cl)cc(-c2cc(C(F)(F)F)nn2-c2ccc(S(N)(=O)=O)cc2)cc1Cl [Example 3, 4-[5-(3,5-Dichloro-4-methoxyphenyl)-3-(trifluoromethyl)-1H-pyrazol-1-yl]benzenesulfonamide] | < 0.1 |  | 
3 | C=CCc1cc(-c2cc(C(F)(F)F)nn2-c2ccc(S(N)(=O)=O)cc2)ccc1OC [Example 6, 4-[5-(3-(3-Propenyl)-4-methoxyphenyl)-3-(trifluoromethyl)-1H-pyrazol-1-yl]benzenesulfonamide] |  |  | IC50 [4]: 78.7 µM
4 | CCCc1cc(-c2cc(C(F)(F)F)nn2-c2ccc(S(N)(=O)=O)cc2)ccc1OC [Example 7, 4-[5-(3-Propyl-4-methoxyphenyl)-3-(trifluoromethyl)-1H-pyrazol-1-yl]benzenesulfonamide] | 14 |  | 
5 | COc1ccc(-c2cc(C(F)(F)F)nn2-c2ccc(S(N)(=O)=O)cc2)cc1CC1CC1 [Example 8, 4-[5-(3-Cyclopropylmethyl-4-methoxyphenyl)-3-(trifluoromethyl)-1H-pyrazol-1-yl]benzenesulfonamide] | 37.7 |  | 
6 | NS(=O)(=O)c1ccc(-n2nc(C(F)F)cc2-c2ccc3c(c2)OCO3)cc1 [Example 82, 4-[5-(1,3-Benzodioxol-5-yl)-3-(difluoromethyl)-1H-pyrazol-1-yl]benzenesulfonamide] |  |  | RAT PAW EDEMA % Inhibition (* Assay performed at 30 mg/kg body weight) [1, 5]: 22* %
7 | COC(=O)c1cc(-c2cc(F)c(OC)c(F)c2)n(-c2ccc(S(N)(=O)=O)cc2)n1 [Example 84, Methyl 1-(4-aminosulfonylphenyl)-5-(3,5-difluoro-4-methoxyphenyl)-1-H-pyrazole-3-carboxylate] | < 0.1 |  | IC50 ([4]; read-out: Human COX I ID50): 65.5 µM
8 | COC(=O)c1cc(-c2ccc(Cl)cc2)n(-c2ccc(S(N)(=O)=O)cc2)n1 [Example 85, Methyl [1-(4-aminosulfonylphenyl)-5-(4-chlorophenyl)-1H-pyrazole-3-yl]carboxylate] | 73.6 | 227 °C | 
9 | CCOC(=O)c1cc(-c2ccc(Cl)cc2)n(-c2ccc(S(N)(=O)=O)cc2)n1 [Example 86, Ethyl [1-(4-aminosulfonylphenyl)-5-(4-chlorophenyl)-1H-pyrazole-3-yl]carboxylate] | 0.5 |  | 
10 | NC(=O)c1cc(-c2ccc(Cl)cc2)n(-c2ccc(S(N)(=O)=O)cc2)n1 [Example 96] | 6.5 | 108 to 110 °C | 
11 | NS(=O)(=O)c1ccc(-n2nc(C(=O)Nc3cccc(Cl)c3)cc2-c2ccc(F)cc2)cc1 [Example 98, N-(3-Chlorophenyl)-[1-(4-aminosulfonylphenyl)-5-(4-fluorophenyl)-1H-pyrazol-3-yl]carboxamide] |  |  | RAT PAW EDEMA % Inhibition (* Assay performed at 30 mg/kg body weight) [1, 5]: 2* %
12 | N#Cc1cc(-c2ccc(F)cc2)n(-c2ccc(S(N)(=O)=O)cc2)n1 [Example 117] |  |  | RAT PAW EDEMA % Inhibition @ 10 mg/kg body weight [1, 6]: 32%
13 | NS(=O)(=O)c1ccc(-n2nc(C(F)(F)Cl)cc2-c2ccc(Cl)cc2)cc1 [Example 129, 4-[5-(4-Chlorophenyl)-3-(chloro-difluoromethyl)-1H-pyrazol-1-yl]benzenesulfonamide] | < 0.1 | 130 to 133 °C | RAT PAW EDEMA % Inhibition (* Assay performed at 30 mg/kg body weight) [1, 5]: 47* %; IC50 ([4]; read-out: Human COX I ID50): 13.5 µM
14 | COc1ccc(-c2cc(C(Cl)Cl)nn2-c2ccc(S(N)(=O)=O)cc2)cc1F [Example 130, 4-[3-(Dichloromethyl)-5-(3-fluoro-4-methoxyphenyl)-1H-pyrazol-1-yl]benzenesulfonamide] | 3.6 | 190 to 193 °C | IC50 ([4]; read-out: Human COX I ID50): 12.5 µM
15 | NS(=O)(=O)c1ccc(-n2nc(C(F)F)cc2-c2cnccn2)cc1 [Example 137, 4-[5-(2-Pyrazinyl)-3-(difluoromethyl)-1H-pyrazol-1-yl]benzenesulfonamide] |  | 191 to 194 °C | 
16 | Cc1c(-c2cc(C(F)(F)F)nn2-c2ccc(S(N)(=O)=O)cc2)ccc2c1OCO2 [Example 138, 4-[5-(4-methyl-1,3-benzodioxol-5-yl)-3-(trifluoromethyl)-1H-pyrazol-1-yl]benzenesulfonamide] | 0.6 |  | IC50 ([4]; read-out: Human COX I ID50): < 0.1 µM
17 | NS(=O)(=O)c1ccc(-n2nc(CCCO)cc2-c2ccccc2)cc1 [Example 172, 4-[5-Phenyl-3-(3-hydroxypropyl)-1H-pyrazol-1-yl]benzenesulfonamide] | 4.2 |  | 

Row | Compound | IC50 [3] [µM] | melting point | other results
18 | NS(=O)(=O)c1ccc(-n2nc(CCCO)cc2-c2ccc(F)cc2)cc1 [Example 173, 4-[5-(4-Fluorophenyl)-3-(3-hydroxypropyl)-1H-pyrazol-1-yl]benzenesulfonamide] | 4.7 |  | 
19 | NS(=O)(=O)c1ccc(-n2nc(CCC(=O)O)cc2-c2ccc(F)cc2)cc1 [Example 174] | 3.5 | 180 to 182 °C | 
20 | CCOC(=O)C(C#N)=Cc1cc(-c2ccccc2)n(-c2ccc(S(N)(=O)=O)cc2)n1 [Example 176, Ethyl 3-[1-[4-(aminosulfonyl)phenyl]-5-phenyl-1H-pyrazol-3-yl]-2-cyano-2-propenoate] | 0.3 |  | 
21 | NS(=O)(=O)c1ccc(-n2nc(C=NOCc3ccccc3)cc2-c2ccc(Cl)cc2)cc1 [Example 177, 4-[5-(4-Chlorophenyl)-3-[[(phenylmethoxy)imino]methyl]-1H-pyrazol-1-yl]benzenesulfonamide] |  | 158 to 159 °C | 
22 | NS(=O)(=O)c1ccc(-n2nc(C(F)(F)F)c3c2-c2ccccc2CC3)cc1 [Example 187, 4-[4,5-Dihydro-3-(trifluoromethyl)-1H-benz[g]indazol-1-yl]benzenesulfonamide] |  | 257 to 258 °C | 
23 | Cc1ccc2c(c1)CCc1c(C(F)(F)F)nn(-c3ccc(S(N)(=O)=O)cc3)c1-2 [Example 188, 4-[4,5-Dihydro-7-methyl-3-(trifluoromethyl)-1H-benz[g]indazol-1-yl]benzenesulfonamide] |  | 215 to 218 °C | IC50 ([4]; read-out: Human COX I ID50): 19.8 µM
24 | NS(=O)(=O)c1ccc(-n2nc(C(F)(F)F)c3c2-c2ccsc2CC3)cc1 [Example 196, 4-[4,5-Dihydro-3-(trifluoromethyl)-1-H-thieno[3,2-g]indazol-1-yl]benzenesulfonamide] | 0.6 | 288 to 290 °C | IC50 ([4]; read-out: Human COX I ID50): 4.1 µM
25 | NS(=O)(=O)c1ccc(-n2ncc(Cl)c2-c2ccc(Cl)cc2)cc1 [Example 197, 4-[5-(4-Chlorophenyl)-4-chloro-1H-pyrazol-1-yl]benzenesulfonamide] |  | 168 to 171 °C (dec.) | RAT PAW EDEMA % Inhibition (* Assay performed at 30 mg/kg body weight) [1, 5]: 45* %
26 | NS(=O)(=O)c1ccc(-n2nc(C(F)(F)F)c(Cl)c2-c2ccc(Cl)cc2)cc1 [Example 199, 4-[5-(4-Chlorophenyl)-3-(trifluoromethyl)-4-chloro-1H-pyrazol-1-yl]benzenesulfonamide] |  |  | RAT PAW EDEMA % Inhibition @ 10 mg/kg body weight [1, 6]: 35%
27 | Cc1c(C(F)(F)F)nn(-c2ccc(S(N)(=O)=O)cc2)c1-c1ccccc1 [Example 201, 4-[4-Methyl-5-phenyl-3-(trifluoromethyl)-1H-pyrazol-1-yl]benzenesulfonamide] | < 0.1 | 145 to 146 °C | IC50 ([4]; read-out: Human COX I ID50): 2.2 µM
28 | CCc1c(C(F)(F)F)nn(-c2ccc(S(N)(=O)=O)cc2)c1-c1ccc(OC)c(C)c1 [Example 202, 4-[4-Ethyl-5-(3-methyl-4-methoxyphenyl)-3-(trifluoromethyl)-1H-pyrazol-1-yl]benzenesulfonamide] | < 0.1 | 135 to 136 °C | IC50 ([4]; read-out: Human COX I ID50): 91 µM
29 | NS(=O)(=O)c1ccc(-n2nc(C(F)(F)F)c(C3CC3)c2-c2ccccc2)cc1 [Example 203, 4-[4-Cyclopropyl-5-phenyl-3-(trifluoromethyl)-1H-pyrazol-1-yl]benzenesulfonamide] | 27 | 173 to 174 °C | 
30 | NS(=O)(=O)c1ccc(-n2nc(C(F)(F)F)c(CO)c2-c2ccccc2)cc1 [Example 204, 4-[4-hydroxymethyl-5-phenyl-3-(trifluoromethyl)-1H-pyrazol-1-yl]benzenesulfonamide] | 6.7 |  | 
31 | CC(C)Cc1nn(-c2ccc(S(N)(=O)=O)cc2)c(-c2ccccc2)c1Cl [Example 205, 4-(4-Chloro-3-isobutyl-5-phenyl-1H-pyrazol-1-yl)benzenesulfonamide] |  |  | IC50 ([3]; recombinant human COX II, arachidonic acid 10 μM, PGE2 ELISA): < 0.1 µM; IC50 ([4]; recombinant human COX I, arachidonic acid 10 μM, PGE2 ELISA, read-out: Human COX I ID50): 2.1 µM
32 | CN(C)C=NS(=O)(=O)c1ccc(-n2nc(C#N)c(Cl)c2-c2ccc(F)cc2)cc1 [Example 259] | 1.1 |  | 
33 | CN(C)C=NS(=O)(=O)c1ccc(-n2nc(C#N)c(Br)c2-c2ccccc2)cc1 [Example 260, 4-[4-Bromo-3-cyano-5-phenyl-1H-pyrazol-1-yl]-N-[(dimethylamino)methylene]benzenesulfonamide] | 1.1 |  | 
